Literature values, collected in US10512655B1, “Methods and compositions for the topical treatment of peripheral neuropathy” (Jeffrey S. Brooks, Inc., priority 2013, dated 2019).

Columns and labels:
[1] = test system: patients with type 1 diabetes; details: oral, 300 mg/day over 24 months
[2] = test system: patients suffering from DPN; details: topical, KY gel non-occlusive vehicle

| Compound | effects upon peripheral nerve function or soluble markers of inflammation [1] | pain relief [2] |
| --- | --- | --- |
| C/C(=C(\CCOP(=O)(O)O)SC(=O)c1ccccc1)N(C=O)Cc1cnc(C)nc1N [benfotiamine, Benfotiamine] | no significant effects | – |
| CN1CC[C@]23c4c5ccc(O)c4O[C@H]2[C@@H](O)C=C[C@H]3[C@H]1C5 [morphine] | – | no pain relief |
